The source of these data is PubChem BioAssay AID504896 (The Scripps Research Institute Molecular Screening Center, 2011).

This assay concerns the target cAMP-dependent protein kinase type I-alpha regulatory subunit (Bos taurus) + cAMP-dependent protein kinase catalytic subunit beta (Mus musculus) (UniProt P00514+P68181). In words: activation of PKA-R1A holoenzyme dissociation, dose response, counter-screen for PKA-R2B activator project, biochemical, Cy5-IP20 fluorescence polarization, 1536-well, triplicate (AID 504896). (In general: Counterscreens check selectivity or assay interference.)

A word on the EC50: it is the concentration needed to bring the measured effect to its halfway point. Take `Nc1ncnc2c1nc(Sc1ccc(Cl)cc1)n2[C@@H]1O[C@@H]2COP(=O)(O)O[C@H]2[C@H]1O`: the EC50 was 32.7 nM.

With `Nc1nc2c(nc(Br)n2[C@@H]2O[C@@H]3COP(=O)(O)O[C@H]3[C@H]2O)c(=O)[nH]1`, the EC50 was 7830 nM.

With `Nc1ncnc2c1nc(Br)n2[C@@H]1O[C@@H]2COP(=O)(O)O[C@H]2[C@H]1O`, the EC50 is 34.4 nM.

Consider `CCCC(=O)Nc1ncnc2c1ncn2[C@@H]1O[C@@H]2OP(=O)(O)OC[C@H]2[C@H]1OC(=O)CCC`, for which the EC50 was 6700 nM.

For the molecule `CCOP1(=O)OCC2OC(n3cnc4c(N)ncnc43)C(O)C2O1` (stereo not given), the 50% effective concentration (EC50) is 2680 nM.
